“Also recorded” adds a separate entry of the source.
Key:
[1] = system: fMLP-induced chemotaxis of human neutrophils; assay: Chemotaxis assay (modified Boyden chamber); assay type: cell-based; details: for chemotactic activity of the substance itself: Boyden chamber; for inhibition of chemotaxis to fMLP: substance in upper chamber, fMLP in lower chamber
Description: Filters (Sartorius membrane filter 3 μm pore) were cut and glued to a modified iml syringe barrel. 300 μl of 2×10^6/ml neutrophils were added to 300 μl antagonist and 200 μl of the suspension was added to the upper chamber (syringe barrel). The lower chamber (a 5 ml beaker), contained 3.6 ml of agonist. After 45 minutes, the cells were fixed in 70% ethanol for 5 minutes. This procedure also removes the filter from the syringe barrel by dissolving the glue. The filters were placed in a multi-well dish and treated as follows: distilled water for 2 minutes, Harris haematoxylin 1 minute, distilled water 1 min, Scotts Tap water (1:1 0.7% sodium bicarbonate:4% Magnesium sulphate (v/v) for 5 minutes, 70% ethanol 3 mins, 95% ethanol 3 minutes and 80%:20% ethanol:butanol (v/v) 5 minutes. The filters were cleared in xylene for 5 minutes, mounted in DEPEX and examined under bright field illumination with a 40× objective. Five randomly selected fields were counted for each filter.

G-actin = details: high salt conditions; cited from earlier work
[2] = system: Human umbilical vein endothelial cells (HUVEC); assay: Scratch wound assay (endothelial sheet wound closure); assay type: cell-based
Description: Scratch wound assay: Human umbilical vein endothelial cells (HUVEC) were grown to confluency in multiwell dishes (Corning) and a scratch made across the diameter of each well with a sterile pipette tip. The resulting wound (approx. 1 mm) was then measured before the addition of Tβ4 or Tβ4so and at 45 min intervals.

human neutrophils = assay: Cell tracking assay (neutrophil locomotion); assay type: cell-based; details: uniform concentration
Description: Neutrophils were obtained as described by Chettibi et al. [1993]. Briefly, whole blood was mixed with 1:10 v/v of 5% dextran and allowed to sediment at 37° C. for 1 hour. The leucocyte rich plasma was layered over Nycoprep 1.077 and centrifuged at 750 g for 15 minutes. Erythrocytes in the resulting pellet were removed by hypotonic lysis and neutrophils were washed twice with balanced salt solution (BSS). The cells were checked for viability by trypan blue exclusion (generally greater than 96% viable).
Automated cell-tracking migration chambers were made as previously described [Chettibi et al., 1993] and placed on the stage of an inverted phase-contrast microscope within a temperature controlled (37° C.) transparent box and locomotion observed by means of a video camera connected to a monochrome monitor and also to an Acorn A5000 computer with a Watford video digitiser programmed to capture and analyze one frame every 5 seconds. Data was obtained from a maximum of 80 selected cells and used to calculate instantaneous speed, the 2-dimensional diffusion coefficient and the locomotion persistence time, using the described procedure to eliminate the contribution of systematic drift [Chettibi et al., 1994].

[3] = system: carrageenan-induced footpad swelling; assay: Carrageenan induced oedema test; assay type: in vivo, BALB/c mice; details: for reduction of carrageenan-induced oedema: 800 ng doses
Description: Induction of Inflammatory Response to Carrageenin: Groups of mice were injected subcutaneously in one hind paw with 300 μg carrageenin mixed the thymosin β4, native or sulphoxide in a final volume of 50 μl. Control animals were injected with the same volume of saline. Footpad swelling was measured using a spring-dial calliper, and expressed as the difference in swelling between the carrageenin-injected paw and the uninjected, contralateral paw. The animals were injected intraperitoneally (i.p.) With the same dose of thymosin β4, native or sulphoxide and footpad measurements made at 6, 24, 48 and 72 hours.

| Substance | chemotactic activity of the substance itself [1] | potency of inhibition of chemotaxis relative to native Tβ4 ([1]; oxidised versus native peptide) | inhibition of chemotaxis to fMLP [1] | concentration needed to inhibit actin polymerisation relative to thymosin β4 (G-actin) [fold] | wound healing (closure rate of scratch on endothelial monolayer) [2] | potency in wound closure relative to native peptide ([2]; oxidised versus native peptide) | dispersive locomotion of neutrophils (human neutrophils) | suppression of footpad swelling ([3]; 10 ng dose) | suppression of footpad swelling ([3]; 100 ng dose) | reduction of carrageenan-induced oedema [3] | suppression of footpad swelling ([3]; administration 30 minutes prior to, during and 6 hours after carrageenan, evident after 6 h, sustained up to 24 hours) | suppression of footpad swelling ([3]; 1000 ng dose) |
| --- | --- | --- | --- | --- | --- | --- | --- | --- | --- | --- | --- | --- |
| oxidised thymosin β4 [Tβ4so] | neither was chemotactic | an order of magnitude more potent; also recorded: tenfold more inhibitory | both inhibited | 20 | promotes would healing | at least an order of magnitude higher potency | dispersive at low concentrations | ineffective | ineffective | significantly reduced | significant suppression of swelling | – |
| thymosin β4 (SDKPDMAEIEKFDKSKLKKTETQEKNPLPSKETIEQEKQAGES; UniProt P62328 2-44, looked up) [Tβ4, native, non-oxidised thymosin β4 prepared from human neutrophils by HPLC, reference compound] | neither was chemotactic | – | both inhibited | – | promotes would healing | – | did not give significant dispersive locomotion | – | – | only the oxidised peptide significantly reduced | – | ineffective |
